In article PMC5923390, “Further New Diterpenoids as PTP1B Inhibitors from the Xisha Soft Coral Sinularia polydactyla” (Marine Drugs, 2018):
“And” between values parts separate entries of the source, which are not always exact repeats. Equal entries are not always repeated.

Target: T1, recombinant PTP1B catalytic domain (Homo sapiens, UniProt P18031)
T1 construct: Recombinant PTP1B catalytic domain was expressed and purified according to a previous report; made in house
T1 sequence (P18031 3-277 limits assumed): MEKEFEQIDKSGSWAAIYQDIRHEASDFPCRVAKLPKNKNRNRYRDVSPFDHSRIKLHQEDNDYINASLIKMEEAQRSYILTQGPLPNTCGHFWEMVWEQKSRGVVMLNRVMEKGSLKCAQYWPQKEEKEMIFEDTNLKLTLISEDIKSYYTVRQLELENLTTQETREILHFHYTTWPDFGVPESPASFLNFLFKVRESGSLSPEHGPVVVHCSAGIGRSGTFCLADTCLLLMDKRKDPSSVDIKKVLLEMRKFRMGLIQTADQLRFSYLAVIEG
Test: PTP1B inhibitory activity assay (pNPP hydrolysis)
Type: biochemical
Details: for PTP1B inhibitory activity (in words): in vitro, pNPP hydrolysis; for IC50: pNPP 2 mmol/L, 30 nmol/L recombinant PTP1B, MOPs pH 6.5, 30 °C, absorbance 405 nm, read-out: IC50 against PTP1B
Procedure: Recombinant PTP1B catalytic domain was expressed and purified according to a previous report. The enzymatic activities of the PTP1B catalytic domain were determined at 30 °C by monitoring the hydrolysis of pNPP. The dephosphorylation of pNPP generated product pNP, which was monitored at an absorbance of 405 nm by the EnVision multi label plate reader (Perkin Elmer Life Sciences, Boston, MA). In an atypical 100 µL assay mixture containing 50 mmol/L 3-[N-morpholino] propanesulfonic acid (MOPs), pH 6.5, 2 mmol/L pNPP, and 30 nmol/L recombinant PTP1B, activities were continuously monitored and the initial rate of hydrolysis was determined using the early linear region of the enzymatic reaction kinetic curve. The IC50 was calculated with Prism 4 software (Graphpad, San Diego, CA).

SMILES | PTP1B inhibitory activity (in words) | IC50
C=C[C@@]1(C)CC[C@H](/C(C)=C/C=C/C(C)(C)OC)C[C@@H]1C(=C)C [Compound 5, lobatetraene] | inactive | 
C=C[C@@]1(C)CC[C@H](/C(C)=C/C=C/C(C)(C)O)C[C@@H]1C(=C)C [Compound 6, fuscol] | inactive | 
CC1=CC[C@@H](O)[C@@]2(C)CC[C@H](/C(C)=C/C=C/C(C)(C)O)C[C@H]12 [Compound 7] |  | 75.5 µM and 72.4 µM
CC(=CC=CC(C)(C)O)C1CCC2(C)CCC=C(C)C2C1 (centres unmarked) [Compound 8, sinupol] | promising inhibitory activity | 63.9 µM
C=C1CCC=C(C)C(OC(C)=O)C(OC(C)=O)C(C(C)C)=CC2C(C)=CCC12 (centres unmarked) [Compound 9, sinulacetate] | promising inhibitory activity | 51.8 µM
CC1=CC=C(C(C)C)C(O)C(O)C(C)=CCCC(C)=CCC1 (centres unmarked) [Compound 10, sarcophytol B] | inactive | 
